Laboratory results published in patent US8889876B2, “Histone deacetylase inhibitors and uses thereof” (Jiangsu Hengyi Pharmaceutical Co., Ltd., priority 2008, dated 2014).
In brackets after ≈: the same amount, converted by molar mass.

Assays:
[1] = tested on: histone deacetylase; experiment: in vitro inhibition of histone deacetylase by HDAC inhibitor screening kit (Biovision K340-100); type: biochemical
Procedure: An assay for determining the in vitro inhibition activity of the compound on histone deacetylase is conducted according to the specification of HDAC inhibitor screeing kid (Biovision Company/Catalog #K340-100). […]

[2] = tested on: Hep3B2.1-7 human liver cancer cells; experiment: CCK-8 proliferation inhibition, Hep3B2.1-7; type: cell-based; details: CCK-8 method; for inhibition at 10 µM / inhibition at 100 µM: Homo sapiens, Hep3B
Outline: (§1)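 Compounds tested at two concentrations, 10 μM and 100 μM, with inhibition rates from CCK-8 viability read-out.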

[3] = tested on: Hut78 T-cell Leukemia cell; experiment: CCK-8 proliferation inhibition, Hut78; type: cell-based; details: for inhibition at 10 µM / inhibition at 100 µM: Homo sapiens, read-out: Hut-78 (inhibition %); for inhibition at 10 µM: HuT78, 10 μM; for inhibition at 100 µM: HuT78, 100 μM
Outline: as §1

[4] = tested on: Jurkat E6-1 human T-cell lymphoma; experiment: CCK-8 proliferation inhibition, Jurkat E6-1; type: cell-based; details: for inhibition at 10 µM / inhibition at 100 µM: Homo sapiens; for inhibition at 10 µM: Jurkat E6.1, 10 μM; for inhibition at 100 µM: Jurkat E6.1, 100 μM
Outline: as §1

[5] = tested on: A549 (human lung adenocarcinoma cells); experiment: MTT cytotoxicity to tumor cell strains, A549; type: cell-based; details: for IC50: Homo sapiens, read-out: Cell activity (IC50, μg/ml) A549
Procedure: (§2) The cytotoxicity of samples to tumor cell strains is determined through MTT.

[6] = tested on: PC-3 human prostate cancer; experiment: CCK-8 proliferation inhibition, PC-3; type: cell-based; details: CCK-8 method; for inhibition at 10 µM / inhibition at 100 µM: Homo sapiens
Outline: as §1

[7] = tested on: MDA-MB-435s human breast cancer cells; experiment: CCK-8 proliferation inhibition, MDA-MB-435s; type: cell-based; details: CCK-8 method; for inhibition at 10 µM / inhibition at 100 µM: Homo sapiens, MDA-MB-435S
Outline: as §1

[8] = tested on: K562 human chronic myeloid leukemia cells; experiment: CCK-8 proliferation inhibition, K562; type: cell-based; details: for inhibition at 10 µM / inhibition at 100 µM: Homo sapiens; for inhibition at 10 µM: K562, 10 μM; for inhibition at 100 µM: K562, 100 μM
Outline: as §1

[9] = tested on: Colo320 human rectal cancer cells; experiment: CCK-8 proliferation inhibition, Colo320; type: cell-based; details: CCK-8 method; for inhibition at 10 µM / inhibition at 100 µM: Homo sapiens, COLO 320
Outline: as §1

[10] = tested on: PANC-1 human pancreatic cancer cells; experiment: CCK-8 proliferation inhibition, PANC-1; type: cell-based; details: for inhibition at 10 µM / inhibition at 100 µM: Homo sapiens; for inhibition at 10 µM: PANC-1, 10 μM; for inhibition at 100 µM: PANC-1, 100 μM
Outline: as §1

[11] = tested on: A549 human lung cancer cells; experiment: CCK-8 proliferation inhibition, A549; type: cell-based; details: CCK-8 method; for inhibition at 10 µM / inhibition at 100 µM: Homo sapiens, A549
Outline: as §1

[12] = tested on: Hut 78 (T-cell Leukemia cell); experiment: MTT cytotoxicity to tumor cell strains, Hut 78; type: cell-based; details: Hut 78, MTT; for IC50: Homo sapiens, HuT78, read-out: Cell activity (IC50, μg/ml) Hut 78
Procedure: as §2

[13] = tested on: histone deacetylase; experiment: in vitro inhibition activity on histone deacetylase (rat liver homogenate, MAL fluorescent substrate); type: biochemical, rats; details: n = 4, 37° C., 16 hours
Procedure: A 96-well plate (black) for determining […] is made by Costar Company of U.S. The histone deacetylase is obtained by homogenization of liver of rats. The histone deacetylase reacts with small molecular fluorescent substrate MAL such that the substrate MAL is deacetylated to become ML.
The compound to be detected is dissolved with 200 μL of DMSO. The stock solution of the compound to be detected is diluted with PBS to a concentration of the working solution. The histone deacetylase, the MAL fluorescent substrate and the compound to be detected are mixed in a water bath at 37° C. and reacted 16 hours. The final concentration of the compound to be detected is: MS275 and its similar compound: 10, 100 μmol/.
The reaction solution is extracted with ethyl acetate. The extract is pumped in vacuum and thereto added 110 μL of methanol (40%). Taking 50 μL/well to a 96-well plate and making a fluorescent detection at 325/390 nm.
The negative control wherein histone deacetylase is not added to the reaction is 100% inhibition. The control that only contains histone deacetylase without any inhibitor is the background (0% inhibition). The inhibition rate of the sample to be detected=(the detected fluorescent value−the background)/(the fluorescent value of the negative control−background)×100%
The inhibition rate and the standard deviation in the results are the average inhibition percentage and the standard deviation of each parallel well in each dosage group.

[14] = tested on: K562: human chronic myeloid leukemia cell strain; experiment: MTT cytotoxicity to tumor cell strains, K562; type: cell-based; details: for IC50: Homo sapiens, read-out: Cell activity (IC50, μg/ml) K562
Procedure: as §2

With `Nc1ccccc1NC(=O)c1ccc(CNC(=O)OCc2cccnc2)cc1` [MS-275, reference compound] the “Inhibition rate(%)” value ([1]; 3.91 μM) was 32.5%, the “Inhibition rate(%)” value ([1]; 62.5 μM) was 60.5% and the “Inhibition rate(%)” value ([1]; 2 mM) was 82.2%. For the same compound, the “Hep3B (inhibition %)” value ([2]; compound concentration 10 μM) was 10.8%, the “Hep3B (inhibition %)” value ([2]; compound concentration 100 μM) was 52.1% and the “Hut-78 (inhibition %)” value ([3]; 10 μM) was 61.8%. For the same compound, the “Hut-78 (inhibition %)” value ([3]; 100 μM) was 85.3%, the “Jurkat E6-1 (inhibition %)” value ([4]; 10 μM) was 89.5% and the “Jurkat E6-1 (inhibition %)” value ([4]; 100 μM) was 96.1%. For the same compound, the “Cell activity (IC50, μg/ml) A549” value [5] was 24.42 µg/mL, the “PC-3 (inhibition %)” value ([6]; compound concentration 10 μM) was 12.5% and the “PC-3 (inhibition %)” value ([6]; compound concentration 100 μM) was 71.5%. The “435s(inhibition %)” value ([7]; compound concentration 10 μM) was 2.7%, the “435s(inhibition %)” value ([7]; compound concentration 100 μM) was 59.3% and the “K562 (inhibition %)” value ([8]; 10 μM) was 66.2%. The “K562 (inhibition %)” value ([8]; 100 μM) was 74.6%, the “Colo320 (inhibition %)” value ([9]; compound concentration 10 μM) was 18.0% and the “Colo320 (inhibition %)” value ([9]; compound concentration 100 μM) was 61.6%. The “PANC-1 (inhibition %)” value ([10]; 10 μM) was 12.4%, the “PANC-1 (inhibition %)” value ([10]; 100 μM) was 31.6% and the “A549 (inhibition %)” value ([11]; compound concentration 10 μM) was 58.9%. For the same compound, the “A549 (inhibition %)” value ([11]; compound concentration 100 μM) was 92.3%, the “Cell activity (IC50, μg/ml) Hut 78” value [12] was 0.15 µg/mL and the “inhibition rate % average number” value ([13]; dosage 10 μmol/L) was 45.588%. The “inhibition rate % average number” value ([13]; dosage 100 μmol/L) was 66.300% and the “Cell activity (IC50, μg/ml) K562” value [14] was 3.20 µg/mL.
`Nc1ncccc1NC(=O)c1ccc(CNC(=O)OCc2cccnc2)cc1` [V-4, N-(2-amino-3-pyridyl)-4-[(3-pyridylmethoxyacyl)aminomethyl]benzamide] was tested, and the “Inhibition rate(%)” value ([1]; 3.91 μM) was 9.4%, the “Inhibition rate(%)” value ([1]; 62.5 μM) was 19.8% and the “Inhibition rate(%)” value ([1]; 2 mM) was 65.2%. It also gave an inhibition at 10 µM ([2]; compound concentration 10 μM) of 2.6%, an inhibition at 100 µM ([2]; compound concentration 100 μM) of 37.4% and an inhibition at 10 µM [3] of 36%. For the same compound, the inhibition at 100 µM [3] was 67.2%, the inhibition at 10 µM [4] was 48.5% and the inhibition at 100 µM [4] was 79.3%. It also gave an IC50 [5] of over 100 µg/mL, an inhibition at 10 µM ([6]; compound concentration 10 μM) of 79.5% and an inhibition at 100 µM ([6]; compound concentration 100 μM) of 91.5%. It also gave an inhibition at 10 µM ([7]; compound concentration 10 μM) of 26.7%, an inhibition at 100 µM ([7]; compound concentration 100 μM) of 87.5% and an inhibition at 10 µM [8] of 22.4%. For the same compound, the inhibition at 100 µM [8] was 30.8%, the inhibition at 10 µM ([9]; compound concentration 10 μM) was 33.2% and the inhibition at 100 µM ([9]; compound concentration 100 μM) was 78.3%. The inhibition at 10 µM [10] was 40.2%, the inhibition at 100 µM [10] was 65.4% and the inhibition at 10 µM ([11]; compound concentration 10 μM) was 50.6%. For the same compound, the inhibition at 100 µM ([11]; compound concentration 100 μM) was 89.7%, the IC50 [12] was 4.21 µg/mL (≈ 11.2 µM) and the “inhibition rate % average number” value ([13]; dosage 10 μmol/L) was 1.644%. The “inhibition rate % average number” value ([13]; dosage 100 μmol/L) was 12.033% and the IC50 [14] was over 100 µg/mL.
In the case of `Nc1cnccc1NC(=O)c1ccc(CNC(=O)OCc2cccnc2)cc1` [V-5], the “Inhibition rate(%)” value ([1]; 3.91 μM) is reported as 7.6%, the “Inhibition rate(%)” value ([1]; 62.5 μM) is reported as 28.0% and the “Inhibition rate(%)” value ([1]; 2 mM) is reported as 77.1%. The inhibition at 10 µM ([2]; compound concentration 10 μM) was 31.2%, the inhibition at 100 µM ([2]; compound concentration 100 μM) was 53.6% and the inhibition at 10 µM [3] was 43.4%. For the same compound, the inhibition at 100 µM [3] was 72.8%, the inhibition at 10 µM [4] was 58.5% and the inhibition at 100 µM [4] was 85.9%. The IC50 [5] was over 100 µg/mL, the inhibition at 10 µM ([6]; compound concentration 10 μM) was 90.3% and the inhibition at 100 µM ([6]; compound concentration 100 μM) was 92.4%. For the same compound, the inhibition at 10 µM ([7]; compound concentration 10 μM) was 35.8%, the inhibition at 100 µM ([7]; compound concentration 100 μM) was 86.9% and the inhibition at 10 µM [8] was 21%. For the same compound, the inhibition at 100 µM [8] was 64.4%, the inhibition at 10 µM ([9]; compound concentration 10 μM) was 39.6% and the inhibition at 100 µM ([9]; compound concentration 100 μM) was 92.9%. For the same compound, the inhibition at 10 µM [10] was 20.7%, the inhibition at 100 µM [10] was 74.1% and the inhibition at 10 µM ([11]; compound concentration 10 μM) was 65.6%. For the same compound, the inhibition at 100 µM ([11]; compound concentration 100 μM) was 84.8%, the IC50 [12] was 0.4 µg/mL (≈ 1.06 µM) and the “inhibition rate % average number” value ([13]; dosage 10 μmol/L) was 9.422%. For the same compound, the “inhibition rate % average number” value ([13]; dosage 100 μmol/L) was 37.240% and the IC50 [14] was over 100 µg/mL.
